Literature values in US20240156726A1, “MULTI-LAYER ORAL THIN FILM” (LTS LOHMANN THERAPIE-SYSTEME AG, priority 2021, published 2024).

Details: compared with (R)-ketamine

CNC1(c2ccccc2Cl)CCCCC1=O (racemic) [(S)-ketamine, (S)-(±)-2-(2-chlorophenyl)-2-(methylamino)cyclohexan-1-one]
analgesic and anaesthetic potency relative to the (R) form: approximately three times higher
